Measurements: patent publication US8193203B2, “Bicyclic compounds having activity at the CXCR4 receptor” (Allergan, Inc., priority 2008, dated 2012)

Target: T1, human CXCR4 receptor (Homo sapiens, UniProt P61073)
T1 construct: expressed in transfected cells
Experiment: Measurement of intracellular Ca+2 responses (FLIPR), antagonism of the SDF-1α response
Format: cell-based
Conditions: for IC50: HEK-Gqi5 cells stably expressing human CXCR4, Fluo-4 FLIPR, antagonism of SDF-1α 1.9 nM (EC65); for CXCR4 (% Inh): percent antagonism of SDF-1α 1.9 nM (EC65) response, HEK-Gqi5 human CXCR4 cells, value in brackets
Experimental: Measurement of Intracellular Ca^+2 Responses for CXCR4 Compounds
HEK-Gqi5 cells stably expressing the human CXCR4 receptor were utilized for these studies. The growth media for the CXCR4 receptor expressing cell line was DMEM high glucose medium supplemented with 10% fetal bovine serum (FBS), 1% antibiotic-antimycotic, 50 ug/ml hygromycin B, and 400 μg/ml geneticin. Ten thousand cells per well were plated into 384-well poly-D-lysine coated plates one day prior to use. On the day of the experiment, the cells were washed twice with Hank's Balanced Salt Solution supplemented with 20 mM hepes (HBSS/hepes buffer). The cells were then dye loaded with 2 uM Fluo-4 diluted in the HBSS/Hepes buffer and incubated at 37° C. for 40 minutes. Extracellular dye was removed by washing the cell plates four times prior to placing the plates in the FLIPR (Fluorometric Imaging Plate Reader, Molecular Devices). Ligands were diluted in HBSS/Hepes buffer and prepared in 384-well microplates. The positive control, stromal-cell derived factor-1 (SDF-1α), was diluted in HBSS/Hepes buffer with 4 mg/ml fatty acid free bovine serum albumin. Two drug additions were made by the FLIPR. The first drug addition was the test drug in concentrations ranging from 2.44 nM to 40,000 nM. After this addition, fluorescent measurements were taken. Any calcium release in response to this drug addition represents agonist activity of the compounds. The second drug addition was SDF-1α at a final concentration of 1.9 nM (EC65). Fluorescence measurements were also taken after this second drug addition and were used to determine the ability of the test compounds to antagonize the SDF-1α response. Results were expressed as EC50 and efficacy values, as well as IC50 and percent antagonism values. As controls, SDF-1α (CXCR4 agonist) and AMD3100 (CXCR4 antagonist) dose-response curves were also determined in each study.

T1 sequence (P61073 whole entry): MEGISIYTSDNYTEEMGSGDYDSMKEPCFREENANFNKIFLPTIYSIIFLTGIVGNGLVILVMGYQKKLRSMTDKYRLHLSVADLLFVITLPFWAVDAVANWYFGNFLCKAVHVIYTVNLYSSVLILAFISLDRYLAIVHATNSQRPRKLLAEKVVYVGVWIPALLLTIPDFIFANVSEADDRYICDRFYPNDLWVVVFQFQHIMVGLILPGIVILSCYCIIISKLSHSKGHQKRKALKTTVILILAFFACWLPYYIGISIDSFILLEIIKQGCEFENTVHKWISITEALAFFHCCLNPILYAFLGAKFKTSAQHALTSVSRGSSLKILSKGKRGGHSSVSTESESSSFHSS

Row | SMILES | IC50 (values given in μM) [µM] | CXCR4 (% Inh) [%] | IC50 (values in nM) [µM]
1 | COc1cccc(N(C)C)c1CN1CCC(Nc2nc(NCCCn3ccnc3)nc3ccccc23)CC1 [Compound 120, N2-(3-(1H-Imidazol-1-yl)propyl)-N4-(1-(2-(dimethylamino)-6-methoxybenzyl)piperidin-4-yl)quinazoline-2,4-diamine] | 1.7 | 95 | 
2 | COc1cccc(N(C)C)c1CN1CCC(Nc2nc(NCC3CCN(C)C3)nc3ccccc23)CC1 (stereo not drawn) [Compound 121, N4-(1-(2-(Dimethylamino)-6-methoxybenzyl)piperidin-4-yl)-N2-((1-methylpyrrolidin-3-yl)methyl)quinazoline-2,4-diamine] |  | 97 | 0.38
3 | COc1cc2nc(NC[C@@H]3CCNC3)nc(NC3CCN(Cc4c(OCCN(C)C)cccc4N(C)C)CC3)c2cc1OC [Compound 123, (R)—N-4-(1-(2-(Dimethylamino)-6-(2-(dimethylamino)ethoxy)benzyl)piperidin-4-yl)-6,7-dimethoxy-N2-(pyrrolidin-3-ylmethyl)quinazoline-2,4-diamine] |  | 96 | 0.084
4 | COc1cccc(N(C)C)c1CN1CCC(Nc2nc(NCCN)nc3ccccc23)CC1 [Compound 125, N2-(2-Aminoethyl)-N4-(1-(2-(dimethylamino)-6-methoxybenzyl)piperidin-4-yl)quinazoline-2,4-diamine] |  | 97 | 0.268
5 | COc1cccc(N(C)C)c1CN1CCC(Nc2nc(NCCNC(=O)NC(C)C)nc3ccccc23)CC1 [Compound 126, 1-(2-(4-(1-(2-(Dimethylamino)-6-methoxybenzyl)piperidin-4-ylamino)quinazolin-2-ylamino)ethyl)-3-isopropylurea] | 2.9 | 96 | 
6 | CN(C)CCCNc1nc(NC2CCN(Cc3ccccc3-n3cccc3)CC2)c2ccccc2n1 [Compound 130, N4-(1-(2-(1H-Pyrrol-1-yl)benzyl)piperidin-4-yl)-N2-(3-(dimethylamino)propyl)quinazoline-2,4-diamine] |  | 75 | 0.978
7 | CCN(CC)CCCNc1nc(NC2CCN(Cc3ccccc3-n3ccnc3)CC2)c2ccccc2n1 [Compound 131, N4-(1-(2-(1H-Imidazol-1-yl)benzyl)piperidin-4-yl)-N2-(3-(diethylamino)propyl)quinazoline-2,4-diamine] | 6.6 | 74 | 
8 | CCN(CC)CCCNc1nc(NC2CCN(Cc3ccccc3-n3cccc3)CC2)c2ccccc2n1 [Compound 132, N4-(1-(2-(1H-Pyrrol-1-yl)benzyl)piperidin-4-yl)-N2-(3-(diethylamino)propyl)quinazoline-2,4-diamine] | 1.4 | 84 | 
9 | CCN(CC)CCCNc1nc(NC2CCN(Cc3cccc4ccn(C)c34)CC2)c2ccccc2n1 [Compound 133, N2-(3-(Diethylamino)propyl)-N4-(1-((1-methyl-1H-indol-7-yl)methyl)piperidin-4-yl)quinazoline-2,4-diamine] | 2.2 | 63 | 
10 | CCN(CC)CCCNc1nc(NC2CCN(Cc3c(OC(C)C)cccc3N(C)C)CC2)c2cc(OC)c(OC)cc2n1 [Compound 139, N˜2˜-[3-(Diethylamino)propyl]-N˜4˜-{1-[2-(dimethylamino)-6-isopropoxybenzyl]piperidin-4-yl}-6,7-dimethoxyquinazoline-2,4-diamine] | 1.4 | 93 | 
11 | COc1cccc(N(C)C)c1CN1CCC(Nc2nc(NCCCN(C)C)nc3ccc(Br)cc23)CC1 [Compound 146, 6-Bromo-N˜4˜-{1-[2-(dimethylamino)-6-methoxybenzyl]piperidin-4-yl}-N˜2˜-[3-(dimethylamino)propyl]quinazoline-2,4-diamine] | 1.2 | 96 | 
12 | CCN(CC)CCCNc1nc(NC2CCN(Cc3ccccc3N)CC2)c2ccccc2n1 [Compound 149, N˜4˜-[1-(2-Aminobenzyl)piperidin-4-yl]-N˜2˜-[3-(diethylamino)propyl]quinazoline-2,4-diamine] | > 10 | 68 | 
